This note sets out measurements from publication PMC4207412, “Secondary Structural Preferences of Some Antibacterial Cyclooctapeptides in the Presence of Calcium(II)” (International Journal of Medicinal Chemistry, 2012).

Where two headings read alike, the source gives them in different places. Square brackets hold non-standard residues; d marks the D form. Peptide text beside a SMILES is read from it.

Test [1] in a line: Isothermal titration calorimetry of Ca2+ binding in 10% acetonitrile in water. As to conditions: ITC, 30°C, no DPC, peptide 0.15 or 0.30 mM, Ca(ClO4)2 9 to 15 mM in syringe, one-site model, mean of three experiments ± standard error mean. On the procedure: (§1) Microcalorimetric titrations of peptides with metal ions were conducted by isothermal titration microcalorimetry (ITC) using a Microcal VP-ITC Instrument (Northampton, MA, USA). Experiments were carried out at 30°C in 10% acetonitrile in water. The peptide concentration was 0.15 or 0.30 mM (1.34 mL sample cell), and the metal ion [Ca(ClO4)2] concentration was varied from 9 to 15 mM in the syringe. Automated titrations were conducted until saturation, up to a Ca^2+/peptide mole ratio of about 12 : 1. Heats of dilution and mixing for each experiment were measured by titrating calcium(II) solution into 10% acetonitrile solution. The effective heat of each peptide and calcium(II) interaction was corrected for dilution and mixing effects by subtracting the enthalpy change derived from the titration of calcium(II) solution into the 10% acetonitrile solution without the peptide. In a similar way, ITC experiments were carried out at 30°C in 10% aqueous acetonitrile containing 10 mM DPC. These heats of bimolecular interactions were obtained by integrating the peak following each injection of calcium(II). The binding isotherms were derived from the raw ITC data following correction for dilution and mixing effects. These isotherms were fitted using the one-site model by a nonlinear least square analysis with Microcal Origin 7.0 software (Microcal Software, Inc., Northampton, MA, USA) to determine the molar enthalpy change for binding, ΔH, and the corresponding binding constant, K b. From these values, the thermodynamic characterization of the interaction at 30°C was determined from the fundamental equations of thermodynamics, ΔG = −RT ln K b and ΔS = (ΔH − ΔG)/T.

The test system of test [2] is Escherichia coli ATCC 25922. The test is classed as cell-based. How it is done: (§2) Microbiological studies were performed on Escherichia coli ATCC 25922 and Staphylococcus aureus ATCC 10566 (American Type Culture Collection (ATCC), Rockville, MD, USA) using carefully standardized conditions. A suspension of the bacteria (in exponential phase of growth) was prepared and then diluted to yield a final concentration of approximately 1 × 10^5 colony forming units (cfu) per milliliter. Stock peptides were dissolved in 9% sucrose solutions containing 5% dimethyl sulfoxide. The 96-well microtiter tray containing the bacterial cultures and peptides was incubated for 18 hrs at 35°C. […] All tests were conducted in triplicate and the reported MIC values were derived from at least three independent experiments.
(§3) COP 4–9 were then designed to include a glutamyl residue to reduce the overall cationic charges on these amphipathic cyclopeptides. […] A lysine residue in COP 4 was sequentially substituted with histidine in COP 5, cysteine in COP 6, and leucine in COP 7. […] As the net positive charges of the cyclopeptide decreased, antimicrobial activity decreased by fourfold (see COP 6). […] The decreasing antimicrobial activities of these cyclopeptides could be attributed to their diminishing cationic character and an inadequate balance of amphipathic residues in their sequences. These structurally similar cyclopeptides (COP 1–9) were subsequently evaluated for calcium(II) binding affinity by ITC and assessed for conformational changes upon calcium(II) binding by circular dichroism (CD).

For test [3], the system named is Staphylococcus aureus ATCC 10566. The test is classed as cell-based. On the procedure:
as §2, §3

A short description of test [4]: Isothermal titration calorimetry of Ca2+ binding in micellar DPC (10 mM). The conditions noted are these: ITC, 30°C, 10% aqueous acetonitrile containing 10 mM micellar DPC; one-site model; mean of three experiments ± standard error mean. On the procedure:
as §1
In order to mimic the hydrophobic environment of the bacterial membrane that antimicrobial peptides commonly target, the interactions of these cyclopeptides with calcium(II) were also conducted in the presence of micellar dodecylphosphocholine (DPC). […] However, their association is compensated by an increase in entropy (ΔS values range from ca. 42.7 to 66.5 JK^−1 mol^−1). This entropy/enthalpy compensation could be attributed to a greater degree of dehydration of the hydration spheres around the cyclopeptide molecules and calcium ions following complex formation in the hydrophobic micellar DPC environment. However, there is no significant trend in the enthalpy or entropy changes following calcium(II) binding in the presence of micellar DPC.
(In ITC the heat of successive injections is recorded.)

Where [5] appears, read: Mueller-Hinton microbroth dilution, ca. 1 × 10^5 cfu/mL, 18 hrs at 35°C, visual turbidity, range tested 256 to 2 μg/mL, triplicate, at least three independent experiments.

Consider `CC(C)C[C@@H]1NC(=O)[C@@H](CCCCN)NC(=O)[C@H](CCCCN)NC(=O)[C@@H](CCCCN)NC(=O)[C@H](CCCCN)NC(=O)[C@@H](CC(C)C)NC(=O)[C@H](CC(C)C)NC(=O)[C@@H](CC(C)C)NC1=O` [COP 1] (cyclo(K[dK]K[dK]L[dL]L[dL])), for which, in test [1], the “Binding affinity for Ca^2+ K b” value is “(3.4 ± 0.6) × 10^3 M^−1”. In addition, the “E. coli ATCC 25922 MIC” value in test [2] (setting [5]) amounted to 16 mg/L. Moreover, in test [3] (setting [5]), the “S. aureus ATCC 10566 MIC” value worked out at 8 mg/L.

For the molecule `CC(C)C[C@@H]1NC(=O)[C@@H](CC(C)C)NC(=O)[C@H](CC(C)C)NC(=O)[C@@H](CCCCN)NC(=O)[C@H](CCCCN)NC(=O)[C@@H](CCCCN)NC(=O)[C@H](CCCCN)NC(=O)[C@@H](Cc2c[nH]c3ccccc23)NC1=O` [COP 2] (cyclo(K[dK]K[dK]L[dL]L[dW])), the “Binding affinity for Ca^2+ K b” value in test [1] is on record as “(4.8 ± 1.3) × 10^3 M^−1”. Besides, in test [2] (setting [5]), the “E. coli ATCC 25922 MIC” value came out at 16 mg/L. In addition, the “S. aureus ATCC 10566 MIC” value in test [3] (setting [5]) was determined as 8 mg/L.

Consider `CC(C)C[C@@H]1NC(=O)[C@@H](CC(C)C)NC(=O)[C@H](CCC(=O)O)NC(=O)[C@@H](CCCCN)NC(=O)[C@H](Cc2c[nH]cn2)NC(=O)[C@@H](CCCCN)NC(=O)[C@H](Cc2c[nH]cn2)NC(=O)[C@@H](CC(C)C)NC1=O` [COP 8] (cyclo(E[dL]L[dL]H[dK]H[dK])), for which the entries for the “Binding affinity for Ca^2+ K b” value in test [1] and in test [4] were “(4.9 ± 0.3) × 10^3 M^−1” and “(4.4 ± 0.02) × 10^3 M^−1”, respectively. Also, the “E. coli ATCC 25922 MIC” value in test [2] (ATCC 25922, 18 h) is greater than 256 mg/L. Further, the “S. aureus ATCC 10566 MIC” value in test [3] (ATCC 10566, 18 h) is greater than 256 mg/L.

Regarding `CC(C)C[C@@H]1NC(=O)[C@@H](CC(C)C)NC(=O)[C@H](CCC(=O)O)NC(=O)[C@@H](CCCCN)NC(=O)[C@H](CCCCN)NC(=O)[C@@H](CCCCN)NC(=O)[C@H](CCC(=O)O)NC(=O)[C@@H](CC(C)C)NC1=O` [COP 9] (cyclo(E[dK]K[dK]E[dL]L[dL])), the “Binding affinity for Ca^2+ K b” value is listed as “(5.4 ± 1.2) × 10^3 M^−1” in test [1] and “(4.1 ± 0.03) × 10^3 M^−1” in test [4]. Also, in test [2] (ATCC 25922, 18 h), the “E. coli ATCC 25922 MIC” value was greater than 256 mg/L. Moreover, the “S. aureus ATCC 10566 MIC” value in test [3] (ATCC 10566, 18 h) is greater than 256 mg/L.

With `CC(C)C[C@@H]1NC(=O)[C@@H](CC(C)C)NC(=O)[C@H](CCC(=O)O)NC(=O)[C@@H](CCCCN)NC(=O)[C@H](CCCCN)NC(=O)[C@@H](CCCCN)NC(=O)[C@H](Cc2c[nH]cn2)NC(=O)[C@@H](CC(C)C)NC1=O` [COP 5] (cyclo(E[dL]L[dL]H[dK]K[dK])), the “Binding affinity for Ca^2+ K b” value is reported as “(5.3 ± 1.4) × 10^3 M^−1” in test [1] and “(5.4 ± 0.6) × 10^3 M^−1” in test [4]. Besides, the “E. coli ATCC 25922 MIC” value in test [2] (ATCC 25922, 18 h) was 32 mg/L. Besides, in test [3] (ATCC 10566, 18 h), the “S. aureus ATCC 10566 MIC” value came to 128 mg/L.

Consider `CC(C)C[C@@H]1NC(=O)[C@@H](CC(C)C)NC(=O)[C@H](CCC(=O)O)NC(=O)[C@@H](CCCCN)NC(=O)[C@H](CCCCN)NC(=O)[C@@H](CCCCN)NC(=O)[C@H](CCCCN)NC(=O)[C@@H](CC(C)C)NC1=O` [COP 4] (cyclo(E[dL]L[dL]K[dK]K[dK])), for which the figures for the “Binding affinity for Ca^2+ K b” value in test [1] and in test [4] were “(3.1 ± 0.7) × 10^3 M^−1” and “(4.7 ± 1.1) × 10^3 M^−1”, respectively. For the same molecule, the “E. coli ATCC 25922 MIC” value in test [2] (setting [5]) was 16 mg/L. Moreover, the “S. aureus ATCC 10566 MIC” value in test [3] (setting [5]) is 32 mg/L.

Turning to `CC(C)C[C@@H]1NC(=O)[C@@H](CC(C)C)NC(=O)[C@H](CC(C)C)NC(=O)[C@@H](CC(C)C)NC(=O)[C@H](CCC(=O)O)NC(=O)[C@@H](CCCCN)NC(=O)[C@H](CCCCN)NC(=O)[C@@H](CCCCN)NC1=O` [COP 7] (cyclo(E[dL]L[dL]L[dK]K[dK])), the “Binding affinity for Ca^2+ K b” value was “(8.0 ± 1.2) × 10^3 M^−1” in test [1] and “(4.7 ± 1.0) × 10^3 M^−1” in test [4]. In test [2] (ATCC 25922, 18 h), the “E. coli ATCC 25922 MIC” value is greater than 256 mg/L. For the same molecule, the “S. aureus ATCC 10566 MIC” value in test [3] (ATCC 10566, 18 h) was greater than 256 mg/L.

In the case of `CC(C)C[C@@H]1NC(=O)[C@@H](CC(C)C)NC(=O)[C@H](CCCCN)NC(=O)[C@@H](CCCCN)NC(=O)[C@H](CCCCN)NC(=O)[C@@H](CCCCN)NC(=O)[C@H](CS)NC(=O)[C@@H](CC(C)C)NC1=O` [COP 3] (cyclo(C[dK]K[dK]K[dL]L[dL])), the “Binding affinity for Ca^2+ K b” value in test [1] was “(7.9 ± 2.8) × 10^3 M^−1”; in test [4], “(3.3 ± 0.3) × 10^3 M^−1”. In addition, the “E. coli ATCC 25922 MIC” value in test [2] (ATCC 25922, 18 h) stood at 16 mg/L. Also, the “S. aureus ATCC 10566 MIC” value in test [3] (ATCC 10566, 18 h) is 16 mg/L.

`CC(C)C[C@@H]1NC(=O)[C@@H](CC(C)C)NC(=O)[C@H](CCC(=O)O)NC(=O)[C@@H](CCCCN)NC(=O)[C@H](CCCCN)NC(=O)[C@@H](CCCCN)NC(=O)[C@H](CS)NC(=O)[C@@H](CC(C)C)NC1=O` [COP 6] (cyclo(C[dK]K[dK]E[dL]L[dL])): the “Binding affinity for Ca^2+ K b” value was “(6.4 ± 2.8) × 10^3 M^−1” in test [1] and “(4.9 ± 0.7) × 10^3 M^−1” in test [4]. Also, the “E. coli ATCC 25922 MIC” value in test [2] (ATCC 25922, 18 h) is 128 mg/L. In test [3] (ATCC 10566, 18 h), the “S. aureus ATCC 10566 MIC” value came to 128 mg/L.
